Columns and labels:
MGC-803 = assay: Cytotoxicity against human MGC803 cells after 72 hrs by MTT assay; assay type: functional, cell-based; conditions: MGC-803, 72 h
[1] = Selectivity ratio of IC50 for trypsin-like activity of 20S proteasome in human HL60 cells to IC50 for chymotrypsin-like activity of 20S proteasome in human HL60 cells
[2] = biological target: T1, Proteasome Macropain subunit MB1 (Homo sapiens, UniProt P28074); assay: Inhibition of chymotrypsin-like activity of 20S proteasome in human HL60 cells using Suc-LLVYaminoluciferin as substrate pretreated for 2 hrs followed by substrate addition by […]; assay type: cell-based
T1 sequence (P28074 whole entry): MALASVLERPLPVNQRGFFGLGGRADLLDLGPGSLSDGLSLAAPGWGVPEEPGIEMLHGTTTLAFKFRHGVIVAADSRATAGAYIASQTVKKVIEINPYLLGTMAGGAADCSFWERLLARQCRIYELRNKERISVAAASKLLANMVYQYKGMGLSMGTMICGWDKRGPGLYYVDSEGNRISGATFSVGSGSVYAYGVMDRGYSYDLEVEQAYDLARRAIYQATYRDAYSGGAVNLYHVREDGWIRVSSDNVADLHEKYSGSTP

[3] = Selectivity ratio of IC50 for PGPH-like activity of 20S proteasome in human HL60 cells to IC50 for chymotrypsin-like activity of 20S proteasome in human HL60 cells
HL-60 = assay: Cytotoxicity against human HL60 cells after 72 hrs by MTT assay; assay type: functional, cell-based; conditions: HL-60, 72 h
[4] = Cytotoxicity against human 95-D cells after 72 hrs by MTT assay; assay type: functional, cell-based
MDA-MB-231 = assay: Cytotoxicity against human MDA-MB-231 cells after 72 hrs by MTT assay; assay type: functional, cell-based; conditions: MDA-MB-231, 72 h
A549 = assay: Cytotoxicity against human A549 cells after 72 hrs by MTT assay; assay type: functional, cell-based; conditions: A549, 72 h
HCT-116 = assay: Cytotoxicity against human HCT116 cells after 72 hrs by MTT assay; assay type: functional, cell-based; conditions: HCT-116, 72 h

SMILES	IC50 (MGC-803)	other results
CC(C)C[C@H](NC(=O)[C@H](Cc1ccccc1)NC(=O)N1CCc2ccccc2C1)C(=O)N1CCC[C@H]1B(O)O	> 10000 nM	
CC(C)C[C@H](NC(=O)c1cnccn1)C(=O)N[C@@H](CC(C)C)C(=O)N1CCC[C@H]1B(O)O	4430 nM	
O=C(N[C@@H](Cc1ccccc1)C(=O)N[C@@H](Cc1ccc2ccccc2c1)C(=O)N1CCC[C@H]1B(O)O)c1cnccn1	110 nM	
CC(C)C[C@H](NC(=O)c1cnccn1)C(=O)N[C@@H](Cc1ccccc1)C(=O)N1CCC[C@H]1B(O)O	27.2 nM	
O=C(N[C@@H](Cc1ccccc1)C(=O)N1CCC[C@H]1B(O)O)c1cnccn1	> 10000 nM	
O=C(N[C@@H](Cc1ccc2ccccc2c1)C(=O)N1CCC[C@H]1B(O)O)OCc1ccccc1	> 10000 nM	
CC(C)C[C@H](NC(=O)N1CCc2ccccc2C1)C(=O)N[C@@H](Cc1ccc2ccccc2c1)C(=O)N1CCC[C@H]1B(O)O	1430 nM	
CC(C)C[C@H](NC(=O)OCc1ccccc1)C(=O)N[C@@H](CC(C)C)C(=O)N1CCC[C@H]1B(O)O	10.9 nM	
O=C(N[C@@H](Cc1ccccc1)C(=O)N1CCC[C@H]1B(O)O)N1CCOCC1	> 10000 nM	
O=C(N[C@@H](Cc1ccccc1)C(=O)N[C@@H](Cc1ccccc1)C(=O)N1CCC[C@H]1B(O)O)c1cnccn1	478 nM	
O=C(N[C@@H](Cc1ccc2ccccc2c1)C(=O)N1CCC[C@H]1B(O)O)[C@H](Cc1ccccc1)NC(=O)N1CCc2ccccc2C1	2420 nM	
O=C(N[C@@H](Cc1ccc(O)cc1)C(=O)N1CCC[C@H]1B(O)O)[C@H](Cc1ccccc1)NC(=O)N1CCc2ccccc2C1	7640 nM	
O=C(N[C@@H](Cc1ccccc1)C(=O)N[C@@H](Cc1ccc2ccccc2c1)C(=O)N1CCC[C@H]1B(O)O)OCc1ccccc1	150 nM	
CC(C)C[C@H](NC(=O)c1cnccn1)C(=O)N[C@@H](Cc1ccc2ccccc2c1)C(=O)N1CCC[C@H]1B(O)O	29.6 nM	
O=C(N[C@@H](Cc1ccccc1)C(=O)N1CCC[C@H]1B(O)O)N1CCc2ccccc2C1	> 10000 nM	
CC(C)C[C@H](NC(=O)N(C)Cc1ccccc1)C(=O)N[C@@H](Cc1ccc2ccccc2c1)C(=O)N1CCC[C@H]1B(O)O	1650 nM	
CC(C)C[C@H](NC(=O)OCc1ccccc1)C(=O)N[C@@H](Cc1ccc2ccccc2c1)C(=O)N1CCC[C@H]1B(O)O	9.76 to 10 nM	Ratio IC50 [1]: 92.2; IC50 [2]: 18 nM; Ratio IC50 [3]: 69.4; IC50 (HL-60): < 1 nM; IC50 [4]: 12 nM; IC50 (MDA-MB-231): 7 nM; IC50 (A549): 5990 nM; IC50 (HCT-116): 69 nM
O=C(N[C@@H](Cc1ccc2ccccc2c1)C(=O)N1CCC[C@H]1B(O)O)N1CCc2ccccc2C1	5360 nM	
CN(Cc1ccccc1)C(=O)N[C@@H](Cc1ccc2ccccc2c1)C(=O)N1CCC[C@H]1B(O)O	7480 nM	
O=C(N[C@@H](Cc1ccccc1)C(=O)N1CCC[C@H]1B(O)O)[C@H](Cc1ccccc1)NC(=O)N1CCc2ccccc2C1	4170 nM	
CC(C)C[C@H](NC(=O)[C@H](Cc1ccccc1)NC(=O)c1cnccn1)B(O)O [BORTEZOMIB]	8 to 13.3 nM	IC50 (HL-60): 8 nM; IC50 [4]: 38 nM; IC50 (HCT-116): 1 nM
